Test results published in ChEMBL document CHEMBL1201862, “PubChem BioAssay data set” (2004).
Calls of active or inactive are those of the source.

Key:
[1] = molecular target: NAD-dependent protein deacylase sirtuin-5, mitochondrial (Homo sapiens, UniProt Q9NXA8); experiment: sirtuin-5 deacylation blockers, concentration series – biochemical, fluorescence imaging, cherry-pick, set 5, dose response (AID 720591);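 note: desuccinylation of succinyl peptide AMC substrate read as fluorescence after trypsin release; potency of inhibitors that lower fluorescence and may act on trypsin instead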
[2] = molecular target: 5-hydroxytryptamine receptor 2A (Mus musculus, UniProt P35363); format: functional, cell-based;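 note: CHO-K1 cells with tagged receptor and beta-arrestin; agonist potency measured as compound-induced activation of the receptor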
[3] = molecular target: Mu-type opioid receptor (Homo sapiens, UniProt P35372); format: functional, cell-based;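 note: U2OS cells with beta-arrestin recruitment to OPRM1 by beta-gal complementation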
[4] = molecular target: T1, Streptokinase A (Streptococcus pyogenes serotype M1, UniProt P10520); experiment: viability-normalized secreted streptokinase activity reduction – plasminogen activation absorbance, OD405, dose response (AID 1914); format: functional, Streptococcus pyogenes M1 GAS;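 note: secreted streptokinase activity via plasminogen activation per viability signal from cell pellet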
T1 sequence (P10520 whole entry): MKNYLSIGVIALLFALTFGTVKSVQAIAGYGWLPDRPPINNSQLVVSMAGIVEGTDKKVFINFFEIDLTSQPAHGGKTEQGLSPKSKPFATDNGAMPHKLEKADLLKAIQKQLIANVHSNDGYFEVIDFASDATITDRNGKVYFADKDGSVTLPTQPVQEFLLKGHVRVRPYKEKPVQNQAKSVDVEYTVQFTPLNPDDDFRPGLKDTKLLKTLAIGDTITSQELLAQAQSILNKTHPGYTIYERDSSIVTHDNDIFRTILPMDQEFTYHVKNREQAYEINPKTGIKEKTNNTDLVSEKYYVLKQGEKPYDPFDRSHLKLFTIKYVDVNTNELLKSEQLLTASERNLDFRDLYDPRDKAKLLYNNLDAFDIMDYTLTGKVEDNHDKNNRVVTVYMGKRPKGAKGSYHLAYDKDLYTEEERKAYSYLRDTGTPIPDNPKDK

[5] = blockers of HIV-1 envelope-mediated cell-cell fusion – cherry-pick, dose response (AID 652057); format: functional, cell-based
[6] = test system: Streptococcus sp. 'group A'; experiment: Streptococcus pyogenes SK(-)GAS viability under kanamycin – luminescence, BacTiterGlo, confirmation, counter-screen for streptokinase expression inhibitor project, dose response (AID 1900); format: functional, organism-based
[7] = viability loss in CEM21 cells – cell-based, CellTiter-Glo luminescence, cherry-picked, cytotoxicity control for viral fusion inhibitor project, dose response (AID 652042); format: functional;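 note: potency for signal decrease meaning cytotoxicity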
[8] = off-target signal loss in HeLa-CEM21 co-culture – HeLa F-luc CTL cells, cherry-picked, counter-screen for HIV-1 Env fusion inhibitor project, dose response (AID 652040); format: functional, cell-based;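 note: potency for signal decrease marking cytotoxic or nonspecific inhibition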
[9] = test system: Streptococcus; experiment: GAS UMAA2166 growth inhibition – luminescence, BacTiterGlo, counter-screen for streptokinase expression inhibitor project, dose response (AID 1915); format: functional, organism-based;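 note: potency for reduction of bacterial viability or growth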
[10] = molecular target: T2, Long-chain-fatty-acid--AMP ligase FadD28 (Mycobacterium tuberculosis, UniProt P9WQ59); experiment: Fluorescence polarization aasay to screen for inhibitors that compete for the binding of FadD28 to a bisubstrate Measured in Biochemical System Using Plate Reader - 2147-01_Inhibitor_Dose_CherryPick_Activity.; format: functional, Mycobacterium tuberculosis H37Rv
T2 sequence (P9WQ59 whole entry): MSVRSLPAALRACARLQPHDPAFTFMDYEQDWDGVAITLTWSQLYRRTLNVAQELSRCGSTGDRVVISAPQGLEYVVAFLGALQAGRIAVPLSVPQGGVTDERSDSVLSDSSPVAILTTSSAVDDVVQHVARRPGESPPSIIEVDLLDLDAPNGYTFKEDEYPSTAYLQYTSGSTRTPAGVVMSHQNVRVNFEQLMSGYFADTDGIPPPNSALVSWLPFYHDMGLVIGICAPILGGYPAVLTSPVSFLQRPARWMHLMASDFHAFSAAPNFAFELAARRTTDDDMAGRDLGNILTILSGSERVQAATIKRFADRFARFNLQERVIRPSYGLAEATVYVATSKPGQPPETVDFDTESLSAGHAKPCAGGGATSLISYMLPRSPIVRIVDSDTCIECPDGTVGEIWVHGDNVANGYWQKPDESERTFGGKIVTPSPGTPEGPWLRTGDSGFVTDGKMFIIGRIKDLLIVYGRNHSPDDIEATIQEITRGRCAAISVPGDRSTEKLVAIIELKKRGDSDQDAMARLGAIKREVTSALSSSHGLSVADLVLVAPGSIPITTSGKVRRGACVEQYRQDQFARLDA

[11] = HIV-1 AD8 envelope cell-cell fusion blockers – cherry-pick, dose response (AID 652062); format: functional, cell-based;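 note: luciferase signal from cell-cell fusion driven by HIV-1 clade B AD8 Env; potency is for inhibitors of fusion seen as a drop in luminescence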
[12] = blockers of HIV-1 ZM109 envelope-driven cell-cell fusion – HeLa effector, CEM target cells, luciferase, cherry-pick, dose response (AID 652058); format: functional, cell-based;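 note: luciferase signal from HIV-1 Env mediated cell-cell fusion of effector and target cells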
[13] = microbe, parasite or virus in culture; format: functional; conditions: Mycobacterium tuberculosis
[14] = molecular target: T3, Low molecular weight phosphotyrosine protein phosphatase (Homo sapiens, UniProt P24666); format: functional; conditions: read-out: IC50_Mean;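 note: Dose-response confirmation assay measuring inhibition of LMPTP enzyme activity by fluorescence intensity read-out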
T3 sequence (P24666 whole entry): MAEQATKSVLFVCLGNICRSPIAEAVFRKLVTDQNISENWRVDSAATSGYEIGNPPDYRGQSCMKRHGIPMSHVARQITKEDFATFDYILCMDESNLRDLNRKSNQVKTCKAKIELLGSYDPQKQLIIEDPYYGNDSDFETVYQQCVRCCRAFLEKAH

[15] = molecular target: T4, Carboxy-terminal domain RNA polymerase II polypeptide A small phosphatase 1 (Homo sapiens, UniProt Q9GZU7); experiment: CTDSP1 inhibitors, concentration-response, biochemical, absorbance readout, ultra-high-throughput screen actives (AID 540297); format: functional
T4 sequence (Q9GZU7 whole entry): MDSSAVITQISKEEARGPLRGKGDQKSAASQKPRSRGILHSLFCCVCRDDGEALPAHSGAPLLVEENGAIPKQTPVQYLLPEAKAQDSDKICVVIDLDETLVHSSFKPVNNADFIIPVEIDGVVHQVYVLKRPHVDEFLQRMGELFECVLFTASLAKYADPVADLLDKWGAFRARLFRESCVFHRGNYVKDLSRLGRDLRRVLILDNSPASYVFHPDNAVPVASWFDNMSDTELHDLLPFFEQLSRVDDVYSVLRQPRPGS

[16] = molecular target: T5, Protein skinhead-1 (Caenorhabditis elegans, UniProt P34707); format: functional
T5 sequence (P34707 whole entry): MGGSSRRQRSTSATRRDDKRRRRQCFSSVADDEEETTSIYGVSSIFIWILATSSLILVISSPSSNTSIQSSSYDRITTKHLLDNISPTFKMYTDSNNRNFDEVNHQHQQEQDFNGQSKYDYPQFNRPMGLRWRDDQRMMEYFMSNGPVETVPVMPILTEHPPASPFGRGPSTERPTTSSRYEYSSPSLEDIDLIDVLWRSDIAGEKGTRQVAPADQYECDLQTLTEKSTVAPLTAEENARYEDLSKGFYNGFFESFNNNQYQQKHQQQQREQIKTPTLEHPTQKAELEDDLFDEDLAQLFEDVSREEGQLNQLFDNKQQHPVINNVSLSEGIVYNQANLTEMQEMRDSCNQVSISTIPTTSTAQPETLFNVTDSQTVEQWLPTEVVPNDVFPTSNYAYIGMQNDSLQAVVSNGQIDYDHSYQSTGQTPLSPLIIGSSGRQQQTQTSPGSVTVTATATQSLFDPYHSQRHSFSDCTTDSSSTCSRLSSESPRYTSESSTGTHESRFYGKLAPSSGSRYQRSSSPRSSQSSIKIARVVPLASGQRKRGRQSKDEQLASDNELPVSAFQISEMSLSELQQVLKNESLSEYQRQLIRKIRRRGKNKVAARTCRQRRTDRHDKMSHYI

[17] = molecular target: T6, Heat shock factor protein 1 (Mus musculus, UniProt P38532); experiment: decrease of HSF1-responsive luciferase luminescence – cell-based, NIH3T3, dose retest, confirmation (AID 2382); format: functional;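 note: NIH3T3 fibroblasts with HSF1-driven luciferase reporter stressed by proteasome inhibitor MG132; luminescence from HSF1-driven luciferase expression after 8 hours of MG132 stress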
T6 sequence (P38532 whole entry): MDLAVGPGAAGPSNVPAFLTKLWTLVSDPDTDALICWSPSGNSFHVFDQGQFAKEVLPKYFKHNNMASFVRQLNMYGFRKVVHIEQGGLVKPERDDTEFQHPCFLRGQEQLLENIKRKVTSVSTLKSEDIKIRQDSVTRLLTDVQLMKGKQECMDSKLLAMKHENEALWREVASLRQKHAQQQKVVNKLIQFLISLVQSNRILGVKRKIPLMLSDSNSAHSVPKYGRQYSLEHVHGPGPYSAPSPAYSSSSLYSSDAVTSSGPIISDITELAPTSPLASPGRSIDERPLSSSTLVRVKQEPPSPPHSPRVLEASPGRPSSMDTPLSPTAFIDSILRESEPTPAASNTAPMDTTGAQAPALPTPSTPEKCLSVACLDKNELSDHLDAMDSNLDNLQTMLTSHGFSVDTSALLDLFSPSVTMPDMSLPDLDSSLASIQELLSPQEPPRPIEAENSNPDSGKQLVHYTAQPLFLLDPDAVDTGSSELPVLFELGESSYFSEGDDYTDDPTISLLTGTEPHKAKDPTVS

[18] = test system: P388/ADR; experiment: cells; format: functional; conditions: Mus musculus
[19] = test system: SN12K1; experiment: cells; format: functional; conditions: Homo sapiens
[20] = loss of viability in HepG2 cells – cell-based, CellTiter-Glo, cherry-picked, cytotoxicity control for Shn3 inhibitor project, dose response (AID 624134); format: functional
[21] = test system: P388; experiment: cells; format: functional; conditions: Mus musculus
[22] = reduction of Shn3 3'UTR-driven luciferase in osteoblasts – cell-based, Clone20 osteoblasts, firefly luciferase, cherry-picked, dose response (AID 624132); format: functional;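 note: firefly luciferase luminescence from reporter carrying the Shn3 3'UTR in osteoblasts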
[23] = molecular target: Paired box protein Pax-8 (Homo sapiens, UniProt Q06710); experiment: PAX8 transcriptional activity inhibition in RMG-I – RMG-I cells, luciferase, cherry-pick, dose response (AID 687027); format: functional, cell-based;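 note: luciferase reporter driven by Pax8 target thyroperoxidase promoter measured by SteadyGlo luminescence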
[24] = non-specific 3'UTR reporter inhibition in Clone20-Shn3RL – cell-based, Renilla luciferase, cherry-picked, counter-screen for Shn3 inhibitor project, dose response (AID 624133); format: functional
[25] = P. falciparum Dd2 growth inhibitors, dose response, SYBR Green, cherry-picked samples (AID 1159567); format: functional, cell-based

Chain of Mu-type opioid receptor (P35372 whole entry): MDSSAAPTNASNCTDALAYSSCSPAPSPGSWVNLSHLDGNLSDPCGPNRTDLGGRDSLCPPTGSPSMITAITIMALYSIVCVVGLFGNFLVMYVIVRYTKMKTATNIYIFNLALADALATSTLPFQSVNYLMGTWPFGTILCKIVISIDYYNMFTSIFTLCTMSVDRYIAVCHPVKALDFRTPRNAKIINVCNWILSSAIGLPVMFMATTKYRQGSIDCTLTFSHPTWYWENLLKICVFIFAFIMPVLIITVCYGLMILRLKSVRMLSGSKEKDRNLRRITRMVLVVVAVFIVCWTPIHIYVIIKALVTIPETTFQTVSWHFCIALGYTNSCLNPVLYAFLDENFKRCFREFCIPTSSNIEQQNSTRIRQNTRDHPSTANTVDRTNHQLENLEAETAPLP
Chain of 5-hydroxytryptamine receptor 2A (P35363 whole entry): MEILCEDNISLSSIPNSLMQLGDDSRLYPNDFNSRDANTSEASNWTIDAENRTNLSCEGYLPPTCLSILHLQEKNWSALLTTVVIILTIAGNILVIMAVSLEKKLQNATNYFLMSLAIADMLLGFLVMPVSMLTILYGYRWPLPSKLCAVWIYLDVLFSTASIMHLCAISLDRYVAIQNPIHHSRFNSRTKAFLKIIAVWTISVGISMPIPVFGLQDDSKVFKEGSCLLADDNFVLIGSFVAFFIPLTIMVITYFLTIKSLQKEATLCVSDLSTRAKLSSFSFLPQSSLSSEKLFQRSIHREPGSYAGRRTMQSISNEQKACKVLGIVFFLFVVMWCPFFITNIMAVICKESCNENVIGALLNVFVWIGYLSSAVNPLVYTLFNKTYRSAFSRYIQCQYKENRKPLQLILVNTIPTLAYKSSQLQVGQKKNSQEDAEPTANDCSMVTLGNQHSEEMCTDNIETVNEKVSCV
Chain of NAD-dependent protein deacylase sirtuin-5, mitochondrial (Q9NXA8 whole entry): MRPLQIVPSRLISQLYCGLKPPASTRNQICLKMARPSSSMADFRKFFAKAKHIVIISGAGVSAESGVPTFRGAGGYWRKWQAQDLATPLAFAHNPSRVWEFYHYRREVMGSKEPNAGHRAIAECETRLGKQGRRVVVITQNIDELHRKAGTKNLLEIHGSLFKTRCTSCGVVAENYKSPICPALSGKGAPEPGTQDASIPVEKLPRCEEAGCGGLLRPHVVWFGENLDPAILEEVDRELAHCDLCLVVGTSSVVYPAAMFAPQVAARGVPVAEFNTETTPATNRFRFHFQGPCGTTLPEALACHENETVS
Chain of Paired box protein Pax-8 (Q06710 whole entry): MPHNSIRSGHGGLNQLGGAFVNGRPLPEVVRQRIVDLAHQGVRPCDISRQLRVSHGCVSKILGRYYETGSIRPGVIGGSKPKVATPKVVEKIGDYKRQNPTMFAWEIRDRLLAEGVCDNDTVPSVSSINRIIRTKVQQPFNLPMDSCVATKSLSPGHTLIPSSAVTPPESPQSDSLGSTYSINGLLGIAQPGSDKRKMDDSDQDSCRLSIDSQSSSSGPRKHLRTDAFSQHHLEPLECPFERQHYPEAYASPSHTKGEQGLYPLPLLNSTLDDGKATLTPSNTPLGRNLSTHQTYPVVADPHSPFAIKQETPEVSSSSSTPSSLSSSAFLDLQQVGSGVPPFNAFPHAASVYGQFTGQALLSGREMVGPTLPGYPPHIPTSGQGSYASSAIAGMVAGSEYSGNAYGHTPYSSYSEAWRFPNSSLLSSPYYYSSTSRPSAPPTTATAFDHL

## COc1cccc(NC(=O)CN(C)CC(=O)Nc2ccc3c(c2)CCC3)c1
[1]
  AC50: > 30 µM (inactive)

## O=C(CN1CCN(c2ccccn2)CC1)Nc1cccc(S(=O)(=O)N2CCCC2)c1
[2]
  EC50: 9.85 µM (active)
[3]
  EC50: 92.5 µM (inactive)

## OC(COCc1ccc(Cl)cc1)CN1CCN(c2ccccn2)CC1 (stereo not drawn)
[2]
  EC50: 0.819 µM (active)
[3]
  EC50: 92.5 µM (inactive)

## Cc1ccc(C2Oc3ccccc3C3=C2C(c2cccs2)n2ncnc2N3)cc1 (stereo not drawn)
[4]
  EC50: > 150 µM (not active)
[5]
  AC50: 9.29 µM (active)
[6]
  EC50: 2.7 µM (active)
[7]
  AC50: 31.7 µM (active)
[8]
  AC50: 14.1 µM (active)
[9]
  EC50: 7.1 µM (active)

## Brc1cccc(CN2CCN(c3ncccn3)CC2)c1
[2]
  EC50: 0.352 µM (active)
[3]
  EC50: 92.5 µM (inactive)

## O=C(c1ccco1)N1CCN(Cc2ccc(Cl)cc2)CC1
[2]
  EC50: 4.08 µM (active)
[3]
  EC50: 92.5 µM (inactive)

## COc1ccc(NC(=O)N[C@@H](CCSC)C(=O)O)cc1OC
[1]
  AC50: > 30 µM (inactive)

## Cc1ccc(C2CC(=O)N3CN(Cc4ccco4)CSC3=C2C#N)cc1 (stereo not drawn)
[10]
  AC50: 82.5 µM (active)

## Cc1[nH]c2ccc(OC(F)(F)F)cc2c1CCNCc1ccc(Cl)cc1
[11]
  AC50: 5.12 µM (active)
[5]
  AC50: 0.838 µM (active)
[12]
  AC50: 1.24 µM (active)
[13]
  CC50: 12.6 µM (active)
[7]
  AC50: 9.56 µM (active)
[8]
  AC50: 1.71 µM (active)

## O=C(Cn1c(=O)oc2ccccc21)Nc1cccc(Cl)c1
[1]
  AC50: > 30 µM (inactive)

## COC(=O)COc1ccc2oc(=O)cc(-c3cc4cccc(OC)c4o3)c2c1
[14]
  IC50: 19.1 µM (active)
[15]
  IC50: 9.43 µM (active)

## O=C(Nc1ccc(CN2CCOCC2)cc1)c1cc2ccccc2o1
[16]
  IC50: 15.4 µM (active)

## CC(C)OC(=O)CSc1nnc(SCc2cccc3ccccc23)s1
[16]
  IC50: > 100 µM (inactive)

## Cc1cccc(NC(=O)CN2C(=O)N/C(=C/c3cc(C)n(C(C)C)c3C)C2=O)c1
[17]
  EC50: > 195 µM (not active)
[10]
  AC50: 7.01 µM (active)

## CCn1cc(CN2CCC(C(=O)Nc3ccc(Oc4cccnc4)cc3)CC2)cn1
[4]
  EC50: > 150 µM (not active)
[6]
  EC50: > 150 µM (not active)
[10]
  AC50: 37.3 µM (active)
[9]
  EC50: > 150 µM (not active)

## CN(CC(=O)Nc1cccc(Cl)c1)S(=O)(=O)c1ccc2c(c1)n(C)c(=O)c(=O)n2C
[1]
  AC50: > 30 µM (inactive)

## O=C1NC2C(=CC(O)C(O)C2O)c2cc3c(cc21)OCO3 (stereo not drawn)
[18]
  GI50: 0.0984 µM (active)
[5]
  AC50: 2.38 µM (active)
[19]
  GI50: 0.234 µM (active)
[20]
  AC50: 53.9 µM (active)
[21]
  GI50: 0.115 µM (active)
[16]
  IC50: 64.3 µM (inactive)
[22]
  AC50: 2.22 µM (active)
[7]
  AC50: 0.738 µM (active)
[8]
  AC50: 3.78 µM (active)
[23]
  AC50: 0.325 µM (active)
[24]
  AC50: 3.82 µM (active)

## Fc1ccc2cc(-c3ccccc3)ncc2c1
[16]
  IC50: > 100 µM (inactive)

## COc1cccc(C(=O)NNC(=O)CCN2CCN(c3ccccc3)CC2)c1
[2]
  EC50: 0.427 µM (active)
[3]
  EC50: 92.4 µM (inactive)

## C[C@@H]1CN([C@H](C)CO)S(=O)(=O)c2ccc(C#Cc3ccccc3)cc2O[C@H]1CN(C)C(=O)C1CC1
[11]
  AC50: 11.1 µM (active)
[5]
  AC50: 2.66 µM (active)
[25]
  AC50: 7.33 µM (active)
[7]
  AC50: 44.3 µM (active)
